Here are results for nine compounds from patent publication US4077954A, “N-(p-methylphenethyl)-4a-aryl-trans-decahydroisoquinolines” (priority 1976, dated 1978).

Where a name gives a salt, the structure may show the parent alone. Read-outs that look alike come from different tables or passages of the source.

A short description of data set [1]: Straub tail test (Straub tail ED50), intraperitoneal, mice. Particulars: mouse, in vivo; for ED50 at 25 min: ip, mice, intraperitoneal, within 25 minutes after dosing, read-out: ED50^ST (Straub tail ED50). Further details: species or system CF1S female mice. The procedure:
Narcotic analgesics produce in mice an erection and arching of the tail (90° or more) which is referable to spinal cord stimulation. This straub tail reaction is not produced by other analgesics, including the narcotic antagonists.
The method used was modified from Shemano, I., and Wendel, H., Tox. Appl. Pharm. 6, 334-9 (1964). CF1 S female mice (18-21 g), 10-20 mice per dose were injected intraperitoneally with log scaled doses of analgesic in 1% aqueous methylcellulose. A positive Straub tail response was recorded if a tail was erected 90° or more for 5 seconds at any time within 25 minutes after dosing. A quantal Straub tail ED50 was calculated by the moving average method. (Thompson, W. R., Bact. Rev. 11, 115-145 (1947).

Data set [2] relates to mice (phenylquinone-induced writhing). The experiment in a line: phenylquinone writhing test (analgesic ED50), oral, mice. It counts as in vivo, female white mice. The conditions noted are these: Mus musculus, read-out: ED50 analgesia. On the procedure: A standard procedure for detecting and comparing the analgesic activity of compounds in this series for which there is good correlation with human efficacy is the standard phenylquinone writhing test modified from Siegmund, et. at., Proc. Soc. Exp. Biol. Med. 95, 729 (1957). A test compound suspended in 1% methylcellulose was given orally to fasted (17-21 hours) female white mice, 5-20 animals per double blind test. Aqueous (0.01% phenyl-p-benzoquinone) phenylquinone was injected intraperitoneally at 24 minutes later using 0.20 ml per mouse. […] The effective analgesic dose for 50% of the mice (ED 50) was calculated by the moving average method of Thompson, W. R., Bact. Rev. 11, 115-145 (1947).
(In general: An intraperitoneal irritant provokes the stretching counted in writhing tests.)

A short description of another data set: in vivo. Particulars: mouse.
In data set [3] the test system is mice. The conditions noted are these: cited from earlier work.
The test system of data set [4] is mice. Particulars: cited from earlier work. This is another data set of the same source.
For data set [5] the following is noted: literature statement; cited from earlier work.
The conditions of data set [6]: Goodman & Gilman 1965; cited from earlier work.
Setting [7] is: oral, Belgian Patent 802,557 compound.

As for `Cc1ccc(CCN2CC[C@]3(c4cccc(O)c4)CCCC[C@H]3C2)cc1` (relative stereo) [N-(p-methylphenethyl)-4a-(m-hydroxyphenyl)-trans-decahydroisoquinoline], in data set [1], the ED50 at 25 min came out at 93 mg/kg. Further, the selectivity ratio in data set [1] (ratio of Straub tail ED50 to analgesic ED50, read-out: ED50^ST /ED50^analgesia) turned out to be 46. For the same compound, the ED50 in data set [2] was 2 mg/kg.

In the case of `COc1cccc([C@@]23CCCC[C@H]2CN(CCc2ccc(C)cc2)CC3)c1` (relative stereo) [N-(p-methylphenethyl)-4a-(m-methoxyphenyl)-trans-decahydroisoquinoline], the ED50 at 25 min in data set [1] came out at 93 mg/kg. Besides, the ED50 in data set [2] was 5.8 mg/kg.

In the case of `Oc1cccc([C@@]23CCCC[C@H]2CN(CCc2ccccc2)CC3)c1` (relative stereo) [N-phenethyl-4a-(m-hydroxyphenyl)-trans-decahydroisoquinoline], in the data set “in vivo” (po), the selectivity ratio was approximately 1. Also, in the data set with mice [3] (setting [7]), the ED50^analgesia is 6.6 mg/kg. The ED50^ST in the data set with mice [4] (setting [7]) is 10 mg/kg.

Turning to `Cc1ccc(CCN2CC[C@@]3(c4cccc(O)c4)CC(C)CC[C@@H]3C2)cc1` (stereo partly drawn) [N-(p-methylphenethyl)-4a-(m-hydroxyphenyl)-6-methyl-trans-decahydroisoquinoline], in data set [1], the ED50 at 25 min was 135 mg/kg. Also, the 50% effective dose (ED50) in data set [2] amounted to 2 mg/kg.

`CN1CCC2(c3ccccc3)CCCCC2C1` (stereo not shown) [N-methyl-4a-phenyl-decahydroisoquinoline]: the “analgesic activity” value in data set [5] is listed as “low analgesic activity”.

As for `COc1cccc([C@@]23CCN(CCc4ccc(C)cc4)C[C@H]2CCC(C)C3)c1` (stereo partly drawn) [N-p-methylphenethyl-4a-(m-methoxyphenyl)-6-methyl-trans-decahydroisoquinoline], the ED50 at 25 min in data set [1] was more than 135 mg/kg. In addition, the ED50 in data set [2] was determined as 8.7 mg/kg.

As to `CC1C2Cc3ccc(O)cc3C1(C)CCN2CCc1ccccc1` (stereo not shown) [Phenzaocine hydrobromide], the selectivity ratio in the data set “in vivo” was approximately 2.5. Further, the “analgesic ED50” value in the data set on mice [3] (mice, Shemano and Wendel 1964) is 0.2 mg/kg. In the data set with mice [4] (mice, Shemano and Wendel 1964), the “Straub tail ED50” value is 0.5 mg/kg.

Take `CN1CC[C@]23c4c5ccc(O)c4O[C@H]2[C@@H](O)C=C[C@H]3[C@H]1C5` [morphine]: the ED50^analgesia with mice [3] (morphine, background section) was 5.6 mg/kg.

As for `CC1C2Cc3ccc(O)cc3C1(C)CCN2CCc1ccccc1` (stereo not shown) [phenazocine, 2'-hydroxy-5,9-dimethyl-2-phenethyl-6,7-benzomorphan], the “analgesic activity” value in data set [5] is on record as “potent analgesic”. For the same compound, the “morphine-like actions” value in data set [6] was “produces the entire range of morphine-like actions, including respiratory depression, constipation, and physical dependence”.

By ED50 is commonly meant the dose at which the effect has come halfway, by size or by number of responders.
